Experimental data: ChEMBL document CHEMBL5131545, “Targeting NOX2 via p47/phox-p22/phox Inhibition with Novel Triproline Mimetics” (ACS Med Chem Lett, 2022)
*1 amine or outer side, *2 acyl side, *3 side chain or, on linkers, in order; H or OH if unused. Where a SMILES comes first, the peptide text is derived from it. The star is where a group is joined. X1 = Clc1ccc(-c2cccc(N*)c2)cc1Cl; Suc = O=C(CCC(=O)[*:2])[*:1]; X2 = C(CC1CC1)N*

Biological target: T1, Neutrophil cytosol factor 1 (Homo sapiens, UniProt P14598)
T1 sequence (P14598 whole entry): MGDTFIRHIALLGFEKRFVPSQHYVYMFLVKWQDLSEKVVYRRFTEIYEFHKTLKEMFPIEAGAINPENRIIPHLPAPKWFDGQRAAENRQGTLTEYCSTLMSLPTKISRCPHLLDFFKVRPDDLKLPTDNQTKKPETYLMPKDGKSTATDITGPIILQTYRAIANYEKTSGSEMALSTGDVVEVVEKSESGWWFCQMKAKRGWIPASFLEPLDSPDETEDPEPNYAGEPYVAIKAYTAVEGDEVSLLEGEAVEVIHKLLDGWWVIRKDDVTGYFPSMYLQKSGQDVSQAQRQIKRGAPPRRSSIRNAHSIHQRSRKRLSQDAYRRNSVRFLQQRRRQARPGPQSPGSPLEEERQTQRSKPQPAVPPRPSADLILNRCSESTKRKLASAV
Test: Binding affinity to human N-terminal TEV cleavable 6His tagged p47phox (151-285 residues) assessed as dissociation […] constant by Surface plasmon resonance assay

| Structure (SMILES) | Kd [nM] |
| --- | --- |
| N=C(N)NCCC[C@H](NC(=O)[C@@H]1CCC[C@H]1[C@@H](O)[C@@H]1CCCN1C(=O)[C@@H]1CCCN1C(=O)CCC(=O)Nc1cccc(-c2ccc(Cl)c(Cl)c2)c1)C(=O)NCCC1CC1 | 312 |
| N=C(N)NCC1CCN(C(=O)[C@@H]2CCCN2C(=O)[C@@H]2CCCN2C(=O)[C@@H]2CCCN2C(=O)CCC(=O)Nc2cccc(-c3cnco3)c2)CC1 | 5710 |
| N=C(N)NCCC[C@H](NC(=O)[C@@H]1CCCN1C(=O)[C@@H]1CCC[C@H]1[C@@H](O)[C@@H]1CCCN1C(=O)CCC(=O)Nc1cccc(-c2ccc(Cl)c(Cl)c2)c1)C(=O)NCCC1CC1 | > 30000 |
| C[C@H](NC(=O)[C@@H]1CCCN1C(=O)[C@@H]1CCCN1C(=O)[C@H](CCCNC(=N)N)NC(=O)[C@@H]1CCCN1C(=O)[C@@H]1CCCN1C(=O)[C@@H]1CCCN1C(=O)[C@H](CC(N)=O)NC(=O)[C@H](CO)NC(=O)[C@@H]1CCCN1C(=O)[C@@H]1CCCN1)C(=O)O (H-PPSNPPPRPPA-OH) | 214 |
| N=C(N)NCCC[C@H](NC(=O)[C@@H]1CCCN1C(=O)[C@@H]1CCCN1C(=O)[C@@H]1CCCN1C(=O)CCC(=O)Nc1cccc(-c2ccc(Cl)c(Cl)c2)c1)C(=O)NCCC1CC1 ({X1-Suc}-PPPR-X2) | 43 |
